Measurements taken from ChEMBL document CHEMBL4699423, “Photocontrolled activation of small molecule cancer therapeutics” (RSC Med Chem, 2020).
pEC50: −log10 of the molar value.

Key:
MDA-MB-468 = assay: Cytotoxicity against human MDA-MB-468 cells; format: functional; settings: read-out: LD50 (the source's name)
HCT-116 = assay: Cytotoxicity against human HCT-116 cells; format: functional; settings: read-out: LD50 (the source's name)
[1] = Cytotoxicity against human MCF-10A cells; format: cell-based; settings: read-out: LD50 (the source's name)
MDA-MB-231 [2] = assay: Cytotoxicity against human MDA-MB-231 cells in dark; format: functional, cell-based
MDA-MB-231 [3] = assay: Cytotoxicity against human MDA-MB-231 cells; format: functional, cell-based

Compound	CC50 (MDA-MB-468)	CC50 (HCT-116)	CC50 [1]	pEC50 (MDA-MB-231 [2])	pEC50 (MDA-MB-231 [3])
CC(C)C[C@H](NC(=O)[C@@H](NC(=O)c1ccc(/N=N\c2ccc(-c3ccccc3)cc2)cc1)[C@@H](C)O)B1OC2C[C@@H]3C[C@H](C2O1)C3(C)C (stereo partly drawn)	1030 nM	212 nM	144 nM	–	–
COc1ccc(/N=N/c2cc(OC)c(OC)c(OC)c2)cc1O	–	–	–	4.42	–
COc1ccc(/N=N\c2cc(OC)c(OC)c(OC)c2)cc1O	–	–	–	–	6.30
CC(C)C[C@H](NC(=O)[C@@H](NC(=O)c1ccc(/N=N/c2ccc(-c3ccccc3)cc2)cc1)[C@@H](C)O)B1OC2C[C@@H]3C[C@H](C2O1)C3(C)C (stereo partly drawn)	683 nM	246 nM	> 5000 nM	–	–
